# System: Detoxification protein genes
# Test: DNA chip mRNA expression in yeast, detoxification protein genes (Table 8)
# Format: cell-based, Saccharomyces cerevisiae S288C
# Procedure: Yeast (Saccharomyces cerevisiae S288C (α SUC2mal mel gap2 CUP1)) were incubated at 25° C. on YPD medium (yeast extract 1%, polypepton 2%, glucose 2%). One of toxic chemical substances was added to the cells at logarithmic growth phase, and the cells were further incubated for two hours. Cells were cultured without any chemical substance in the same condition, and were used as control. Concentrations of the chemical substances were defined to inhibit the growth of the yeast but not lead to death.
# After completion of the incubation, the culture was centrifuged to collect the cells. To the cells, sodium acetate buffer (50 mM sodium acetate, 10 mM EDTA, 1% SDS) was added, and the mixture was shaken at 65° C. for five minutes, followed by returning to room temperature, and obtaining the supernatant, of which the procedures were repeated two times. To the supernatant, ½ amount of a solution of phenol/chloroform was added, and the mixture was centrifuged to give a supernatant, which was added with an equal amount of chloroform, and the mixture was centrifuged to give a supernatant. To the supernatant, an equal amount of isopropanol containing 0.3 M sodium acetate was added, and the mixture was allowed to stand at room temperature for 30 minutes, after which the mixture was centrifuged to give a sediment of the whole RNAs. Seventy % ethanol was added to the sediment, and the mixture was again centrifuged to give a sediment, which was then dried and dissolved in water. mRNA was isolated from the whole RNAs as followings. In view of the fact that a poly A chain is attached to the 3′ terminus of mRNA, a polynucleotide having a poly T structure which was immobilized on the surface of latex beads was used to trap the mRNA, and then the mRNA was washed and eluted with spine column (Oligotex-dT30<Super>mRNA Purification Kit, Takara). Reverse transcription of the mRNA was conducted with a reverse transcriptase (Super Script II Reverse Transcriptase; catalogue No. 18064-014, GibcoBRL) using fluorescence-labeled nucleotides to give cDNAs that were introduced with Cy3-dUTP or Cy5-dUTP during the reverse transcription.
# The labeled cDNAs were dissolved in TE buffer (10mM Tris-HCl/1 mM EDTA, pH8.0), and the solution was dropped on the DNA chip containing the whole genes of yeast (DNA Chip Research Inc. Japan) so that the cDNAs were hybridized on the DNA chip at 65° C. for over 12 hours. The fluoresces intensity of the DNA chip was read with a scanner, and the ratio relative to the fluorescence intensity resulting from the absence of chemical substance was estimated as the following, which is shown in Tables 1 to 9: […]
structure (smiles),measurement,setting,value
"CCCCCCCCCCCCc1ccc(S(=O)(=O)[O-])cc1.[Na+] [(17), sodium dodecylbenzosulfonate]",The level of expressed mRNA in the presence of chemical substance/The level of expressed mRNA in the absence of chemical substance,yeast gene YBR244W,1.2
same,The level of expressed mRNA in the presence of chemical substance/The level of expressed mRNA in the absence of chemical substance,yeast gene YBR293W,1.0
same,The level of expressed mRNA in the presence of chemical substance/The level of expressed mRNA in the absence of chemical substance,yeast gene YCL035C,2.6
same,The level of expressed mRNA in the presence of chemical substance/The level of expressed mRNA in the absence of chemical substance,yeast gene YCL069W,1.0
same,The level of expressed mRNA in the presence of chemical substance/The level of expressed mRNA in the absence of chemical substance,yeast gene YCR083W,1.3
same,The level of expressed mRNA in the presence of chemical substance/The level of expressed mRNA in the absence of chemical substance,yeast gene YDL100C,1.2
same,The level of expressed mRNA in the presence of chemical substance/The level of expressed mRNA in the absence of chemical substance,yeast gene YDL168W,0.9
same,The level of expressed mRNA in the presence of chemical substance/The level of expressed mRNA in the absence of chemical substance,yeast gene YDR256C,1.0
same,The level of expressed mRNA in the presence of chemical substance/The level of expressed mRNA in the absence of chemical substance,yeast gene YDR453C,1.0
same,The level of expressed mRNA in the presence of chemical substance/The level of expressed mRNA in the absence of chemical substance,yeast gene YDR513W,1.3
same,The level of expressed mRNA in the presence of chemical substance/The level of expressed mRNA in the absence of chemical substance,yeast gene YDR538W,1.0
same,The level of expressed mRNA in the presence of chemical substance/The level of expressed mRNA in the absence of chemical substance,yeast gene YEL027W,1.0
same,The level of expressed mRNA in the presence of chemical substance/The level of expressed mRNA in the absence of chemical substance,yeast gene YEL065W,0.7
same,The level of expressed mRNA in the presence of chemical substance/The level of expressed mRNA in the absence of chemical substance,yeast gene YER185W,2.6
same,The level of expressed mRNA in the presence of chemical substance/The level of expressed mRNA in the absence of chemical substance,yeast gene YFL050C,0.8
same,The level of expressed mRNA in the presence of chemical substance/The level of expressed mRNA in the absence of chemical substance,yeast gene YGL013C,1.1
same,The level of expressed mRNA in the presence of chemical substance/The level of expressed mRNA in the absence of chemical substance,yeast gene YGL254W,0.8
same,The level of expressed mRNA in the presence of chemical substance/The level of expressed mRNA in the absence of chemical substance,yeast gene YGR088W,0.9
same,The level of expressed mRNA in the presence of chemical substance/The level of expressed mRNA in the absence of chemical substance,yeast gene YGR138C,0.7
same,The level of expressed mRNA in the presence of chemical substance/The level of expressed mRNA in the absence of chemical substance,yeast gene YGR197C,1.7
same,The level of expressed mRNA in the presence of chemical substance/The level of expressed mRNA in the absence of chemical substance,yeast gene YGR209C,1.3
same,The level of expressed mRNA in the presence of chemical substance/The level of expressed mRNA in the absence of chemical substance,yeast gene YGR224W,2.8
same,The level of expressed mRNA in the presence of chemical substance/The level of expressed mRNA in the absence of chemical substance,yeast gene YHL040C,1.4
same,The level of expressed mRNA in the presence of chemical substance/The level of expressed mRNA in the absence of chemical substance,yeast gene YHL047C,1.2
same,The level of expressed mRNA in the presence of chemical substance/The level of expressed mRNA in the absence of chemical substance,yeast gene YHR008C,0.9
same,The level of expressed mRNA in the presence of chemical substance/The level of expressed mRNA in the absence of chemical substance,yeast gene YHR048W,0.7
same,The level of expressed mRNA in the presence of chemical substance/The level of expressed mRNA in the absence of chemical substance,yeast gene YHR053C,1.0
same,The level of expressed mRNA in the presence of chemical substance/The level of expressed mRNA in the absence of chemical substance,yeast gene YHR055C,0.9
same,The level of expressed mRNA in the presence of chemical substance/The level of expressed mRNA in the absence of chemical substance,yeast gene YIR002C,1.1
same,The level of expressed mRNA in the presence of chemical substance/The level of expressed mRNA in the absence of chemical substance,yeast gene YIR038C,2.8
same,The level of expressed mRNA in the presence of chemical substance/The level of expressed mRNA in the absence of chemical substance,yeast gene YJL101C,0.9
same,The level of expressed mRNA in the presence of chemical substance/The level of expressed mRNA in the absence of chemical substance,yeast gene YJR104C,0.9
same,The level of expressed mRNA in the presence of chemical substance/The level of expressed mRNA in the absence of chemical substance,yeast gene YKL026C,1.6
same,The level of expressed mRNA in the presence of chemical substance/The level of expressed mRNA in the absence of chemical substance,yeast gene YKL064W,1.3
same,The level of expressed mRNA in the presence of chemical substance/The level of expressed mRNA in the absence of chemical substance,yeast gene YKR066C,0.9
same,The level of expressed mRNA in the presence of chemical substance/The level of expressed mRNA in the absence of chemical substance,yeast gene YKR105C,0.8
same,The level of expressed mRNA in the presence of chemical substance/The level of expressed mRNA in the absence of chemical substance,yeast gene YKR106W,0.9
same,The level of expressed mRNA in the presence of chemical substance/The level of expressed mRNA in the absence of chemical substance,yeast gene YLL028W,1.2
same,The level of expressed mRNA in the presence of chemical substance/The level of expressed mRNA in the absence of chemical substance,yeast gene YLL057C,3.0
same,The level of expressed mRNA in the presence of chemical substance/The level of expressed mRNA in the absence of chemical substance,yeast gene YLL060C,1.9
same,The level of expressed mRNA in the presence of chemical substance/The level of expressed mRNA in the absence of chemical substance,yeast gene YLR043C,1.5
same,The level of expressed mRNA in the presence of chemical substance/The level of expressed mRNA in the absence of chemical substance,yeast gene YLR046C,5.2
same,The level of expressed mRNA in the presence of chemical substance/The level of expressed mRNA in the absence of chemical substance,yeast gene YML028W,1.1
same,The level of expressed mRNA in the presence of chemical substance/The level of expressed mRNA in the absence of chemical substance,yeast gene YML116W,1.0
same,The level of expressed mRNA in the presence of chemical substance/The level of expressed mRNA in the absence of chemical substance,yeast gene YMR015C,1.0
same,The level of expressed mRNA in the presence of chemical substance/The level of expressed mRNA in the absence of chemical substance,yeast gene YMR038C,1.2
same,The level of expressed mRNA in the presence of chemical substance/The level of expressed mRNA in the absence of chemical substance,yeast gene YNL239W,1.1
same,The level of expressed mRNA in the presence of chemical substance/The level of expressed mRNA in the absence of chemical substance,yeast gene YNL241C,1.0
same,The level of expressed mRNA in the presence of chemical substance/The level of expressed mRNA in the absence of chemical substance,yeast gene YNL259C,2.6
same,The level of expressed mRNA in the presence of chemical substance/The level of expressed mRNA in the absence of chemical substance,yeast gene YOL158C,1.4
same,The level of expressed mRNA in the presence of chemical substance/The level of expressed mRNA in the absence of chemical substance,yeast gene YOR031W,1.7
same,The level of expressed mRNA in the presence of chemical substance/The level of expressed mRNA in the absence of chemical substance,yeast gene YOR153W,2.5
same,The level of expressed mRNA in the presence of chemical substance/The level of expressed mRNA in the absence of chemical substance,yeast gene YOR247W,1.2
same,The level of expressed mRNA in the presence of chemical substance/The level of expressed mRNA in the absence of chemical substance,yeast gene YOR251C,0.9
same,The level of expressed mRNA in the presence of chemical substance/The level of expressed mRNA in the absence of chemical substance,yeast gene YOR273C,3.2
same,The level of expressed mRNA in the presence of chemical substance/The level of expressed mRNA in the absence of chemical substance,yeast gene YPL163C,1.4
same,The level of expressed mRNA in the presence of chemical substance/The level of expressed mRNA in the absence of chemical substance,yeast gene YPR200C,1.1

# Reference: patent US8192962B2, “Processes for detecting toxic substances” (Daikin Industries, Ltd., priority 2001, dated 2012)
